# Legend:
# [1] = test system: premature senescent renal tubular cells (HK2) by doxorubicin; assay: CCK-8 cell survival, doxorubicin-induced premature senescent HK2 cells; assay type: cell-based, human; conditions: 100 nM, 4 days; compared to DMSO-treated group; FIG. 6A-6C
# Experimental: (§1) Each cell was treated in a serum-free culture solution containing doxorubicin (0.5 μM) for 4 hours. After washing the cells with a serum-free culture solution, the cells were cultured for 4 days in a culture solution containing 10% FBS, and then cellular aging was confirmed by measuring the level of senescence by staining with senescence-associated beta galactosidase.
# (§2) After each sample was dissolved in DMSO, young cells, replicative senescent cells and senescent cells in which premature aging was induced by treating with doxorubicin were treated with 100 nM salinomycin, 100 nM rapamycin, 100 nM ABT263. After incubation for 4 days in a 37° C., 5% CO2 incubator, the degree of cell survival was confirmed by CCK-8 analysis, the degree of cellular aging was confirmed by senescence-associated β-galactosidase (SAβG) staining, p53 and p16 protein expression analysis.
# (§3) Young cells (1×10^3 cells/well) or senescent cells (2×10^3 cells/well) were dispensed into a 96-well plate, and cultured overnight in a 37° C., 5% CO2 incubator. Salinomycin, ABT263 and rapamycin were treated at each concentration, and then incubated for 4 days in a 37° C., 5% CO2 incubator. […] Then, the absorbance was measured at 450 nm using a Microplate reader.
# (§4) The degree of cell survival was expressed as a relative value for the absorbance of the control group treated with only DMSO as 100%. […]
# [2] = test system: replicative senescent human fibroblasts (HDF); assay: Western blot of p53 and p16, replicative senescent human fibroblasts; assay type: cell-based; conditions: FIG. 2C
# Experimental: (§5) After dispensing 2×10^5 cells in a 100 mm culture dish, they were cultured in a 37° C., 5% CO2 incubator. When the cells grew to 80-90% in the culture dish, the cells were removed by treatment with trypsin-EDTA, and the number of cells was measured, and the cell population doubling time (PDT) was measured.
# (§6) By successively subculturing the cells in the same process as described above, replication aging was induced. PDT of young fibroblasts was 36 hours, PDT of replicative senescent fibroblasts was 12 days, PDT of young vascular endothelial cells was 24 hours, and PDT of replicative senescent vascular endothelial cells was 7 days.
# After dispensing the cells into a 60 mm culture dish, the cells were cultured overnight in an incubator at 37° C. and 5% CO2. After treatment with salinomycin, ABT263 and rapamycin, it was incubated for 3 days in a 37° C., 5% CO2 incubator. […]
# The lysed cells were transferred to a 1.5 ml tube, pipetted 3-4 times, and then left on ice for 20 minutes. After centrifugation at 12,000 rpm for 20 minutes to recover the supernatant, the protein concentration of the supernatant was quantified by BCA analysis. […]
# [3] = test system: premature senescent renal tubular cells (HK2) by doxorubicin; assay: SAβG activity staining, doxorubicin-induced premature senescent HK2 cells; assay type: cell-based, human; conditions: 100 nM, 4 days; compared to DMSO-treated group; FIG. 6A-6C
# Experimental: as §1, §2
# The cells were washed with 1× phosphate buffer solution, and fixed with a phosphate buffer solution containing 3.7% (v/v) paraformaldehyde. After adding 1 mg/ml 5-bromo-4-chloro-3-indolyl-β-D-galactoside, 40 mM citric acid-sodium phosphate (pH 6.0), 5 mM potassium ferricyanide, 5 mM potassium ferrocyanide, 150 mM NaCl, and 2 mM MgCl2 solution, it was reacted at 37° C. for 18 hours. It was stained with eosin as a control stain and cells stained blue in the cytoplasm were identified using an optical microscope. […]
# [4] = test system: premature senescent vascular endothelial cells (HUVEC) by doxorubicin; assay: CCK-8 cell survival, doxorubicin-induced premature senescent HUVEC; assay type: cell-based, human; conditions: 100 nM, 4 days; compared to DMSO-treated group; FIG. 3C
# Experimental: as §1, §2, §3, §4
# [5] = test system: replicative senescent human fibroblasts (HDF); assay: SAβG activity staining, replicative senescent human fibroblasts; assay type: cell-based; conditions: increasing concentration of salinomycin, senescent cells; FIG. 2A, 2B
# Experimental: as §5, §6, §2
# The cells were washed with 1× phosphate buffer solution, and fixed with a phosphate buffer solution containing 3.7% (v/v) paraformaldehyde. […]
smiles,measurement,setting,value
CC[C@@H](C(=O)[C@@H](C)[C@@H](O)[C@H](C)[C@@H]1O[C@@H]([C@@H](CC)C(=O)O)CC[C@@H]1C)[C@H]1O[C@]2(C=C[C@@H](O)[C@]3(CC[C@@](C)([C@H]4CC[C@](O)(CC)[C@H](C)O4)O3)O2)[C@H](C)C[C@@H]1C [salinomycin],survival (CCK-8),[1],no change
same,expression of p16 protein (Western blot),[2],reduced
same,expression of p53 protein (Western blot),[2],reduced
same,SaβG activity,[3],no change
same,cell survival (CCK-8),[4],no difference
same,SAβG activity,[5],decreased in senescent cells in a concentration-dependent manner
